Experimental data published in ChEMBL document CHEMBL4376871, “Synthesis and anti-cancer activity studies of dammarane-type triterpenoid derivatives” (Eur J Med Chem, 2020).
Calls of active or inactive are those of the source. The rule behind the calls is not given here.

Columns and labels:
MGC-803 = test: Antiproliferative activity against human MGC803 cells incubated for 48 hrs and measured after 4 hrs by MTT assay; assay type: functional, cell-based
SGC-7901 = test: Antiproliferative activity against human SGC7901 cells incubated for 48 hrs and measured after 4 hrs by MTT assay; assay type: functional, cell-based
A549 [1] = test: Antiproliferative activity against human A549 cells incubated for 48 hrs and measured after 4 hrs by MTT assay; assay type: functional, cell-based
MCF7 = test: Antiproliferative activity against human MCF7 cells incubated for 48 hrs and measured after 4 hrs by MTT assay; assay type: functional, cell-based
PC-3 = test: Antiproliferative activity against human PC3 cells incubated for 48 hrs and measured after 4 hrs by MTT assay; assay type: functional, cell-based
[2] = Cytotoxicity against human IOSE-144 cells incubated for 48 hrs and measured after 4 hrs by MTT assay; assay type: cell-based
A549 [3] = test: Induction of apoptosis in human A549 cells assessed as appearance of fragmented apoptotic bodies at 10 to 20 uM measured after 12 hrs by DAPI staining based fluorescence microscopic analysis; assay type: functional, cell-based
A549 [4] = test: Induction of apoptosis in human A549 cells assessed as nuclear condensation at 10 to 20 uM measured after 12 hrs by DAPI staining based fluorescence microscopic analysis; assay type: functional, cell-based
A549 [5] = test: Induction of apoptosis in human A549 cells assessed as nuclear shrinkage at 10 to 20 uM measured after 12 hrs by DAPI staining based fluorescence microscopic analysis; assay type: functional, cell-based

SMILES	IC50 (MGC-803)	IC50 (SGC-7901)	IC50 (A549 [1])	IC50 (MCF7)	IC50 (PC-3)	IC50 [2]	Activity (A549 [3])	Activity (A549 [4])	Activity (A549 [5])
CC(C)(O)CCC[C@@](C)(O)[C@H]1CC[C@]2(C)[C@@H]1[C@H](O)C[C@@H]1[C@@]3(C)CC[C@H](O)C(C)(C)[C@@H]3CC[C@]12C	69.8 µM	34 µM	22.7 µM	28.5 µM	45.7 µM	> 100 µM	inactive	inactive	inactive
CC(C)(O)CCC[C@@](C)(O)[C@H]1CC[C@]2(C)[C@@H]1[C@H](O)C[C@@H]1[C@@]3(C)CC[C@H](NC(=O)C4CCCN(C(=O)OC(C)(C)C)C4)C(C)(C)[C@@H]3CC[C@]12C (stereo not given in full)	16.8 µM	18.1 µM	23.5 µM	21.2 µM	23.1 µM	> 100 µM	–	–	–
CC(C)(O)CCC[C@@](C)(O)[C@H]1CC[C@]2(C)[C@@H]1[C@H](O)C[C@@H]1[C@@]3(C)C/C(=C\c4cccc(F)c4)[C@H](O)C(C)(C)[C@@H]3CC[C@]12C	56.1 µM	> 100 µM	> 100 µM	> 100 µM	> 100 µM	> 100 µM	–	–	–

The remaining molecules from weak to strong by IC50 (MGC-803), led by results:

IC50 (MGC-803)	IC50 (SGC-7901)	IC50 (A549 [1])	IC50 (MCF7)	IC50 (PC-3)	SMILES	IC50 [2]	Activity (A549 [3])	Activity (A549 [4])	Activity (A549 [5])
26.2 µM	29.1 µM	48.4 µM	15.5 µM	36.8 µM	CC(C)(O)CCC[C@@](C)(O)[C@H]1CC[C@]2(C)[C@@H]1[C@H](O)C[C@@H]1[C@@]3(C)C/C(=C\c4ccc(C(F)(F)F)cc4)C(=O)C(C)(C)[C@@H]3CC[C@]12C	> 100 µM	–	–	–
25.5 µM	32.4 µM	20.3 µM	25.2 µM	34.1 µM	CC(C)(O)CCC[C@@](C)(O)[C@H]1CC[C@]2(C)[C@@H]1[C@H](O)C[C@@H]1[C@@]3(C)CC[C@H](NC(=O)C4CCNCC4)C(C)(C)[C@@H]3CC[C@]12C	> 100 µM	–	–	–
12.6 µM	30.4 µM	21.4 µM	13.2 µM	24.4 µM	CC(C)(O)CCC[C@@](C)(O)[C@H]1CC[C@]2(C)[C@@H]1[C@H](O)C[C@@H]1[C@@]3(C)C/C(=C\c4ccc(F)cc4F)[C@H](O)C(C)(C)[C@@H]3CC[C@]12C	> 100 µM	–	–	–
11.4 µM	18.8 µM	11.7 µM	89.5 µM	17.9 µM	CC(C)(O)CCC[C@@](C)(O)[C@H]1CC[C@]2(C)[C@@H]1[C@H](O)C[C@@H]1[C@@]3(C)CC[C@H](NC(=O)C4CCN(C(=O)OC(C)(C)C)CC4)C(C)(C)[C@@H]3CC[C@]12C	> 100 µM	–	–	–
